# Measured values from publication PMC8617627, “Novel DYRK1A Inhibitor Rescues Learning and Memory Deficits in a Mouse Model of Down Syndrome” (Pharmaceuticals, 2021).
# Read-outs that look alike come from different tables or passages of the source.
# Columns and labels:
# Assay in all cases: Kinase profile (33P ATP filter binding)
# Format in all cases: biochemical
# Details in all cases: read-out: Remaining protein kinase activity
# PIM3 = PIM3 (Homo sapiens, UniProt Q86V86)
# PKCz = biological target: T1, PKCz (Homo sapiens, UniProt Q05513)
# T1 sequence (Q05513 1-592): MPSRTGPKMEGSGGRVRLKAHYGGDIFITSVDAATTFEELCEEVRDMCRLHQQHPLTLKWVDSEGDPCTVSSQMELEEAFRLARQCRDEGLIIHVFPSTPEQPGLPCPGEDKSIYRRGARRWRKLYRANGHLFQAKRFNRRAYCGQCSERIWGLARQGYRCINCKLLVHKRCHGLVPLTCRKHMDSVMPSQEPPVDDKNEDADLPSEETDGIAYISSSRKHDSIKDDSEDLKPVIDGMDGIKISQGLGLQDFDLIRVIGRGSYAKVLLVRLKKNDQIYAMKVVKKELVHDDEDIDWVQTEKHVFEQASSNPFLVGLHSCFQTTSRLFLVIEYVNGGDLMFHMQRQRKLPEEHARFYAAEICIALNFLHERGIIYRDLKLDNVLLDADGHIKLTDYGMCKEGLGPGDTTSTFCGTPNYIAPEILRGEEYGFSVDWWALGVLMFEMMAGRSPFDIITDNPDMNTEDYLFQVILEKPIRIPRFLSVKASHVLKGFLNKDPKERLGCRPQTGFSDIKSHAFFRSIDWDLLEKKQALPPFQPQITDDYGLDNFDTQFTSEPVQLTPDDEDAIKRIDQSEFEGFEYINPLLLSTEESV
# DDR2 = biological target: T2, DDR2 (Homo sapiens, UniProt Q16832)
# T2 sequence (Q16832 22-855): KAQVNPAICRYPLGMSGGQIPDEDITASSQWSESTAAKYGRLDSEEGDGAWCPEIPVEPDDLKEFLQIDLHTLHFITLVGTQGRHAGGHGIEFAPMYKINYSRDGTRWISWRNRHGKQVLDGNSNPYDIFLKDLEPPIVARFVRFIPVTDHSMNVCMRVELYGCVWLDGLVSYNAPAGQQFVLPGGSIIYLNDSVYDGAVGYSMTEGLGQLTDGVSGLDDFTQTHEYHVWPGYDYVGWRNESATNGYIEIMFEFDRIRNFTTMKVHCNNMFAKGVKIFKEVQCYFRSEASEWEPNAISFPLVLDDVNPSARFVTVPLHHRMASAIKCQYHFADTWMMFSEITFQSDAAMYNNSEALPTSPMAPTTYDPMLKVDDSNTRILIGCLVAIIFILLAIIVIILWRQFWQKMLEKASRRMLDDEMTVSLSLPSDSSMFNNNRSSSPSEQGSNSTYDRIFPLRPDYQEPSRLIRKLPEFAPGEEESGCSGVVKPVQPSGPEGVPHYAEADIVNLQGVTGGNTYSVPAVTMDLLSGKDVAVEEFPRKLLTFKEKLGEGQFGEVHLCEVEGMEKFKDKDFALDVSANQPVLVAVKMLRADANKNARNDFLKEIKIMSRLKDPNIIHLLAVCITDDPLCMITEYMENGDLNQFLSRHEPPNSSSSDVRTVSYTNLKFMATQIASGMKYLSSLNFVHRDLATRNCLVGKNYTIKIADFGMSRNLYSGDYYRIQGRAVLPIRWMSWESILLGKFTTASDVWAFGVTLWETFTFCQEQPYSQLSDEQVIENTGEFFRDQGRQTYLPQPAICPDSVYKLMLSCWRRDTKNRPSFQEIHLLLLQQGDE
# PLK1 = PLK1 (Homo sapiens, UniProt P53350)
# ULK2 = biological target: T3, ULK2 (Homo sapiens, UniProt Q8IYT8)
# T3 sequence (Q8IYT8 1-1036): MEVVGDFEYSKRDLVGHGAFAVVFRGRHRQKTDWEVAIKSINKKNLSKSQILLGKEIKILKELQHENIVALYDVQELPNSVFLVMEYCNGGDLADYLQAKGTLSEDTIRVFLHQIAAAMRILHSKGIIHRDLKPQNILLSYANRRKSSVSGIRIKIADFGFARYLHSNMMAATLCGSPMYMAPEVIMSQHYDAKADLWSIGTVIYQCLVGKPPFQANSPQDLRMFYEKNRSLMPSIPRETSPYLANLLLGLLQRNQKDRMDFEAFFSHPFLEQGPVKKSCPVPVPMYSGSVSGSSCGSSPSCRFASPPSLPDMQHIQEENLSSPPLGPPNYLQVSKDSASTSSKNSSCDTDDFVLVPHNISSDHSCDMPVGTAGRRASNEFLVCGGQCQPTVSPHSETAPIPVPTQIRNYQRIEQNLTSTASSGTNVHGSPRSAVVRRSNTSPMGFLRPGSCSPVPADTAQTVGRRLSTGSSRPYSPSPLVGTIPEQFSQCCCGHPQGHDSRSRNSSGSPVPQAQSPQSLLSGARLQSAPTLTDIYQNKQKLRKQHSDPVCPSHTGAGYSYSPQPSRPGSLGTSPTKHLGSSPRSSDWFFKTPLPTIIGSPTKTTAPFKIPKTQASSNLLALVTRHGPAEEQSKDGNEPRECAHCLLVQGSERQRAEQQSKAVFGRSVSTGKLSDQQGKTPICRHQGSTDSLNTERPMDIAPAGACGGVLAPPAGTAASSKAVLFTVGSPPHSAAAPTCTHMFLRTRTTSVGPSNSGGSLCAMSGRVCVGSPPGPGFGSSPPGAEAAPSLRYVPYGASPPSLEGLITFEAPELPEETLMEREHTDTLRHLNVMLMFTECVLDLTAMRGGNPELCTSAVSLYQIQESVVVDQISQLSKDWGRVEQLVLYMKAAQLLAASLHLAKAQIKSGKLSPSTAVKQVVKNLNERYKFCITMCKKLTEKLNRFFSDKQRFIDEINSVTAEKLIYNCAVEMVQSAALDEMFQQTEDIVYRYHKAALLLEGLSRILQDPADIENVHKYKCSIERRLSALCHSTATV
# Sequence of PLK1 (P53350 whole entry): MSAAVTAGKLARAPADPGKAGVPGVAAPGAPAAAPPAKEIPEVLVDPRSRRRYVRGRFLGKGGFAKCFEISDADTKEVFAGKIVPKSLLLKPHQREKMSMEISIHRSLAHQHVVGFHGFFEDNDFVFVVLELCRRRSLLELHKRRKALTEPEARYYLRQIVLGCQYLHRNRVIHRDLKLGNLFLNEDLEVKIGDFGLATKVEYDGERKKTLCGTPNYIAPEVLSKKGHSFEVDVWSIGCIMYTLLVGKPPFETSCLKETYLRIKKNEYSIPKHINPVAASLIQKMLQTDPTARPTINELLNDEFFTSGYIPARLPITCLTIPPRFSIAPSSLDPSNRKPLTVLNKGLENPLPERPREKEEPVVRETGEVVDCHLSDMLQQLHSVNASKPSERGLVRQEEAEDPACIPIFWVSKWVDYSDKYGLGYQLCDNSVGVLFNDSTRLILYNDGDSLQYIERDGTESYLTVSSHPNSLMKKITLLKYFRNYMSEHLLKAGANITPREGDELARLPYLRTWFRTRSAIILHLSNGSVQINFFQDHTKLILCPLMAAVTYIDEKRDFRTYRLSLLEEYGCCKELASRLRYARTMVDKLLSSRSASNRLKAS
SMILES,remaining activity at 1 µM (PIM3) [%],remaining activity at 100 µM (PIM3) [%],remaining activity at 1 µM (PKCz) [%],remaining activity at 100 µM (PKCz) [%],remaining activity at 1 µM (DDR2) [%],remaining activity at 100 µM (DDR2) [%],remaining activity at 1 µM (PLK1) [%],remaining activity at 100 µM (PLK1) [%],remaining activity at 1 µM (ULK2) [%],remaining activity at 100 µM (ULK2) [%],"remaining activity at 1 µM (PIM3; PIM3, 1 μM) [%]","remaining activity at 100 µM (PIM3; PIM3, 100 μM) [%]","remaining activity at 1 µM (PKCz; PKCz, 1 μM) [%]","remaining activity at 100 µM (PKCz; PKCz, 100 μM) [%]","remaining activity at 1 µM (DDR2; DDR2, 1 μM) [%]","remaining activity at 100 µM (DDR2; DDR2, 100 μM) [%]","remaining activity at 1 µM (PLK1; PLK1, 1 μM) [%]","remaining activity at 100 µM (PLK1; PLK1, 100 μM) [%]","remaining activity at 1 µM (ULK2; ULK2, 1 μM) [%]","remaining activity at 100 µM (ULK2; ULK2, 100 μM) [%]"
"COc1ccc2sc(-c3cncc(NC(C)=O)c3)nc2c1 [PST-001, N-(5-(5-Methoxybenzo[d]thiazol-2-yl)pyridin-3-yl)acetamide]",93,76,119,124,98,80,112,115,111,119,–,–,–,–,–,–,–,–,–,–
"COc1ccc2sc(-c3cncc(N)c3)nc2c1 [compound 1, 5-(5-Methoxybenzo[d]thiazol-2-yl)pyridin-3-amine]",–,–,–,–,–,–,–,–,–,–,90,24,106,128,107,49,99,73,101,50
